Test results reported in ChEMBL document CHEMBL4819157, “Synthesis and biological evaluation of novel ligustrazine-chalcone derivatives as potential anti-triple negative breast cancer agents” (Bioorg Med Chem Lett, 2021).
Activity calls are given as the source filed them. The rule behind the calls is not given here.

Key:
MDA-MB-231 [1] = assay: Antiproliferation activity against human MDA-MB-231 cells assessed as reduction in cell viability after 72 hrs by CCK8 assay; type: functional, cell-based; details: MDA-MB-231, 72 h
MCF7 [2] = assay: Antiproliferation activity against human MCF-7 cells assessed as reduction in cell viability after 72 hrs by CCK8 assay; type: functional, cell-based; details: MCF7, 72 h
A549 = assay: Antiproliferation activity against human A549 cells assessed as reduction in cell viability after 72 hrs by CCK8 assay; type: functional, cell-based; details: A549, 72 h
HepG2 = assay: Antiproliferation activity against human HepG2 cells assessed as reduction in cell viability after 72 hrs by CCK8 assay; type: functional, cell-based; details: HepG2, 72 h
MCF-10A = assay: Cytotoxicity against human MCF-10A cells assessed as reduction in cell viability after 72 hrs by CCK8 assay; type: cell-based
HUVEC = assay: Cytotoxicity against human HUVEC cells assessed as reduction in cell viability after 72 hrs by CCK8 assay; type: cell-based
MDA-MB-231 [3] = assay: Inhibition of colony formation in human MDA-MB-231 cells at 0.25 to 2 times of IC50 concentration incubated for 48 hrs by plate colony counting assay; type: functional, cell-based
MCF7 [4] = assay: Inhibition of colony formation in human MCF-7 cells at 0.25 to 2 times of IC50 concentration incubated for 48 hrs by plate colony counting assay; type: functional, cell-based
MDA-MB-231 [5] = assay: Inhibition of colony formation in human MDA-MB-231 cells at IC50 concentration upto 72 hrs by plate colony counting assay; type: functional, cell-based; details: time hrs <=72, TDE = time-dependent effect
MCF7 [6] = assay: Inhibition of colony formation in human MCF-7 cells at IC50 concentration upto 72 hrs by plate colony counting assay; type: functional, cell-based; details: time hrs <=72, TDE = time-dependent effect
MDA-MB-231 [7] = assay: Inhibition of cell migration in human MDA-MB-231 cells 0.5 to 2 times of IC50 incubated up to 48 hrs by scratch wound healing assay; type: functional, cell-based; details: time hrs <=48
MCF7 [8] = assay: Inhibition of cell migration in human MCF-7 cells 0.5 to 2 times of IC50 incubated up to 48 hrs by scratch wound healing assay; type: functional, cell-based; details: time hrs <=48
MDA-MB-231 [9] = assay: Induction of apoptosis in human MDA-MB-231 cells assessed as early apoptotic cells at 0.5 times of IC50 by Annexin V-FITC/PI double staining based flow cytometry analysis (reference value: 6.64%); type: functional
MDA-MB-231 [10] = assay: Induction of apoptosis in human MDA-MB-231 cells assessed as late apoptotic cells at 0.5 times of IC50 by Annexin V-FITC/PI double staining based flow cytometry analysis (reference value: 0.00%); type: functional
MDA-MB-231 [11] = assay: Induction of apoptosis in human MDA-MB-231 cells assessed as necrotic cells at 0.5 times of IC50 by Annexin V-FITC/PI double staining based flow cytometry analysis (reference value: 0.02%); type: functional
MDA-MB-231 [12] = assay: Induction of apoptosis in human MDA-MB-231 cells assessed as viable cells at 0.5 times of IC50 by Annexin V-FITC/PI double staining based flow cytometry analysis (reference value: 93.34%); type: functional
MDA-MB-231 [13] = assay: Induction of apoptosis in human MDA-MB-231 cells assessed as early apoptotic cells at IC50 by Annexin V-FITC/PI double staining based flow cytometry analysis (reference value: 6.64%); type: functional
MDA-MB-231 [14] = assay: Induction of apoptosis in human MDA-MB-231 cells assessed as late apoptotic cells at IC50 by Annexin V-FITC/PI double staining based flow cytometry analysis (reference value: 0.00%); type: functional
MDA-MB-231 [15] = assay: Induction of apoptosis in human MDA-MB-231 cells assessed as necrotic cells at IC50 by Annexin V-FITC/PI double staining based flow cytometry analysis (reference value: 0.02%); type: functional
MDA-MB-231 [16] = assay: Induction of apoptosis in human MDA-MB-231 cells assessed as viable cells at IC50 by Annexin V-FITC/PI double staining based flow cytometry analysis (reference value: 93.34%); type: functional
MDA-MB-231 [17] = assay: Induction of apoptosis in human MDA-MB-231 cells assessed as early apoptotic cells at 2 times of IC50 by Annexin V-FITC/PI double staining based flow cytometry analysis (reference value: 6.64%); type: functional
MDA-MB-231 [18] = assay: Induction of apoptosis in human MDA-MB-231 cells assessed as late apoptotic cells at 2 times of IC50 by Annexin V-FITC/PI double staining based flow cytometry analysis (reference value: 0.00%); type: functional
MDA-MB-231 [19] = assay: Induction of apoptosis in human MDA-MB-231 cells assessed as necrotic cells at 2 times of IC50 by Annexin V-FITC/PI double staining based flow cytometry analysis (reference value: 0.02%); type: functional
MDA-MB-231 [20] = assay: Induction of apoptosis in human MDA-MB-231 cells assessed as viable cells at 2 times of IC50 by Annexin V-FITC/PI double staining based flow cytometry analysis (reference value: 93.34%); type: functional
MDA-MB-231 [21] = assay: Induction of cell cycle arrest in human […] cells assessed as increase in accumulation of cells at G0/G1 phase at 0.5 to 2 times of IC50 after 48 hrs by propidium iodide staining-based flow cytometric analysis; type: functional
MDA-MB-231 [22] = assay: Induction of cell cycle arrest in human […] cells assessed as decrease in accumulation of cells at S phase at 0.5 to 2 times of IC50 after 48 hrs by propidium iodide staining-based flow cytometric analysis; type: functional
MDA-MB-231 [23] = assay: Induction of cell cycle arrest in human […] cells assessed as decrease in accumulation of cells at G2/M phase at 0.5 to 2 times of IC50 after 48 hrs by propidium iodide staining-based flow cytometric analysis; type: functional
[24] = Toxicity in mouse xenografted with human MDA-MB-468 cells assessed as effect on body weight at 25 to 75 mg/kg; type: organism-based; details: in vivo, dose 25-75 mg/kg
[25] = Antitumour activity against human MDA-MB-468 cells xenografted in mouse assessed as reduction in Ki67 positive cells at 25 mg/kg, by immunohistochemical analysis (reference value: 76.50 +/- 5.28%); type: functional, MDA-MB-231; design: scale not given: the % may be the effect or the level left
[26] = Antitumour activity against human MDA-MB-468 cells xenografted in mouse assessed as reduction in Ki67 positive cells at 50 mg/kg, by immunohistochemical analysis (reference value: 76.50 +/- 5.28%); type: functional, MDA-MB-231; design: scale not given: the % may be the effect or the level left
[27] = Antitumour activity against human MDA-MB-468 cells xenografted in mouse assessed as reduction in Ki67 positive cells at 75 mg/kg, by immunohistochemical analysis (reference value: 76.50 +/- 5.28%); type: functional, MDA-MB-231; design: scale not given: the % may be the effect or the level left

Cc1nc(C)c(/C=C/C(=O)c2ccc(NC(=O)c3ccccc3F)cc2)nc1C
IC50 (MDA-MB-231 [1]): 1.98 µM | IC50 (MCF7 [2]): 1270 nM | IC50 (A549): 7.39 µM | IC50 (HepG2): 2.04 µM

O=C(/C=C/c1ccc(O)cc1)c1ccc(O)cc1O [ISOLIQUIRITIGENIN]
IC50 (MDA-MB-231 [1]): 10.9 µM | IC50 (MCF7 [2]): 17700 nM | IC50 (A549): 52.6 µM | IC50 (HepG2): 27.7 µM

COc1cc2nccc(Oc3ccc(NC(=O)C4(C(=O)Nc5ccc(F)cc5)CC4)cc3)c2cc1OC [CABOZANTINIB]
IC50 (MDA-MB-231 [1]): 19.7 µM | IC50 (MCF7 [2]): 14300 nM | IC50 (A549): 15.2 µM | IC50 (HepG2): 15.6 µM

COc1ccc(C(=O)Nc2ccc(C(=O)/C=C/c3nc(C)c(C)nc3C)cc2)cc1
IC50 (MDA-MB-231 [1]): 1.6 µM | IC50 (MCF7 [2]): 1410 nM | IC50 (A549): 4.15 µM | IC50 (HepG2): 1.19 µM | IC50 (MCF-10A): 59.6 µM | IC50 (HUVEC): 29.2 µM | inhibition (MDA-MB-231 [3]): Dose-Dependent Effect | inhibition (MCF7 [4]): Dose-Dependent Effect | inhibition (MDA-MB-231 [5]): Tde | inhibition (MCF7 [6]): Tde | inhibition (MDA-MB-231 [7]): Dose-Dependent Effect | inhibition (MCF7 [8]): Dose-Dependent Effect | Activity (MDA-MB-231 [9]): 25.14% | Activity (MDA-MB-231 [10]): 0.65% | Activity (MDA-MB-231 [11]): 1.54% | Activity (MDA-MB-231 [12]): 72.66% | Activity (MDA-MB-231 [13]): 43.98% | Activity (MDA-MB-231 [14]): 8.62% | Activity (MDA-MB-231 [15]): 2.89% | Activity (MDA-MB-231 [16]): 44.51% | Activity (MDA-MB-231 [17]): 50.96% | Activity (MDA-MB-231 [18]): 15.92% | Activity (MDA-MB-231 [19]): 2.15% | Activity (MDA-MB-231 [20]): 30.97% | Activity (MDA-MB-231 [21]): Active | Activity (MDA-MB-231 [22]): Active | Activity (MDA-MB-231 [23]): Active | Activity [24]: Non-Toxic | Activity [25]: 19.51% | Activity [26]: 11.29% | Activity [27]: 8.95%

Cc1nc(C)c(/C=C/C(=O)c2ccc(NC(=O)c3ccc(F)cc3)cc2)nc1C
IC50 (MDA-MB-231 [1]): 1.67 µM | IC50 (MCF7 [2]): 1540 nM | IC50 (A549): 4.48 µM | IC50 (HepG2): 2.25 µM | IC50 (MCF-10A): 42.9 µM | IC50 (HUVEC): 32.7 µM | inhibition (MDA-MB-231 [3]): Dose-Dependent Effect | inhibition (MCF7 [4]): Dose-Dependent Effect | inhibition (MDA-MB-231 [5]): Tde | inhibition (MCF7 [6]): Tde | inhibition (MDA-MB-231 [7]): Dose-Dependent Effect | inhibition (MCF7 [8]): Dose-Dependent Effect

COc1cccc(OC)c1C(=O)Nc1ccc(C(=O)/C=C/c2nc(C)c(C)nc2C)cc1
IC50 (MDA-MB-231 [1]): 3.85 µM | IC50 (MCF7 [2]): 2470 nM | IC50 (A549): 8.47 µM | IC50 (HepG2): 3.38 µM

Cc1nc(C)c(/C=C/C(=O)c2ccc(NC(=O)c3ccc(F)cc3F)cc2)nc1C
IC50 (MDA-MB-231 [1]): 1.77 µM | IC50 (MCF7 [2]): 1610 nM | IC50 (A549): 2.45 µM | IC50 (HepG2): 2.99 µM

COc1cc(OC)cc(C(=O)Nc2ccc(C(=O)/C=C/c3nc(C)c(C)nc3C)cc2)c1
IC50 (MDA-MB-231 [1]): 11.6 µM | IC50 (MCF7 [2]): 6270 nM | IC50 (A549): 10.2 µM | IC50 (HepG2): 11 µM

COc1ccc(C(=O)Nc2ccc(C(=O)/C=C/c3nc(C)c(C)nc3C)cc2)cc1OC
IC50 (MDA-MB-231 [1]): 3.36 µM | IC50 (MCF7 [2]): 1660 nM | IC50 (A549): 5.06 µM | IC50 (HepG2): 2.56 µM

Cc1nc(C)c(C)nc1C [LIGUSTRAZINE]
IC50 (MDA-MB-231 [1]): 20.4 µM | IC50 (MCF7 [2]): 29800 nM | IC50 (A549): 36.5 µM | IC50 (HepG2): 38.2 µM

O=c1[nH]cc(F)c(=O)[nH]1 [FLUOROURACIL]
IC50 (MDA-MB-231 [1]): 5.85 µM | IC50 (MCF7 [2]): 5440 nM | IC50 (A549): 2.53 µM | IC50 (HepG2): 2.98 µM

Cc1ccc(C(=O)Nc2ccc(C(=O)/C=C/c3nc(C)c(C)nc3C)cc2)cc1
IC50 (MDA-MB-231 [1]): 1.78 µM | IC50 (MCF7 [2]): 1180 nM | IC50 (A549): 9.99 µM | IC50 (HepG2): 5.45 µM

Cc1nc(C)c(/C=C/C(=O)c2ccc(NC(=O)c3ccccc3)cc2)nc1C
IC50 (MDA-MB-231 [1]): 1.84 µM | IC50 (MCF7 [2]): 990 nM | IC50 (A549): 7.27 µM | IC50 (HepG2): 1.31 µM

COc1cc(C(=O)Nc2ccc(C(=O)/C=C/c3nc(C)c(C)nc3C)cc2)cc(OC)c1OC
IC50 (MDA-MB-231 [1]): 4.74 µM | IC50 (MCF7 [2]): 2760 nM | IC50 (A549): 7.35 µM | IC50 (HepG2): 4.86 µM
